Source: US6566365B1, “Method for the treatment of Flaviviridea viral infection using nucleoside analogues” (BioChem Pharma Inc., priority 1999, dated 2003)

Tests used:
[1] = biological target: T1, HCV RNA-dependent RNA polymerase (NS5B protein) (Hepatitis C virus genotype 1b, UniProt P26663); test: In vitro HCV RNA-dependent RNA polymerase assay, triphosphate form of guanosine analogues (polyC/oligoG or heteropolymeric RNA template, [32P]-GTP incorporation); type: biochemical, HCV-Bk strain; settings: purified recombinant NS5B; for inhibition at 50 µM: @50 μM compound
T1 construct: The cDNA encoding the entire NS5B protein of HCV-Bk strain, genotype 1b; added initiator Met (ATG introduced before the NS5B coding region) (N); made in house; host or cells: Sf9 insect cells, recombinant baculovirus BacNS5B (pBlueBacII)
T1 sequence (P26663 2420-3010): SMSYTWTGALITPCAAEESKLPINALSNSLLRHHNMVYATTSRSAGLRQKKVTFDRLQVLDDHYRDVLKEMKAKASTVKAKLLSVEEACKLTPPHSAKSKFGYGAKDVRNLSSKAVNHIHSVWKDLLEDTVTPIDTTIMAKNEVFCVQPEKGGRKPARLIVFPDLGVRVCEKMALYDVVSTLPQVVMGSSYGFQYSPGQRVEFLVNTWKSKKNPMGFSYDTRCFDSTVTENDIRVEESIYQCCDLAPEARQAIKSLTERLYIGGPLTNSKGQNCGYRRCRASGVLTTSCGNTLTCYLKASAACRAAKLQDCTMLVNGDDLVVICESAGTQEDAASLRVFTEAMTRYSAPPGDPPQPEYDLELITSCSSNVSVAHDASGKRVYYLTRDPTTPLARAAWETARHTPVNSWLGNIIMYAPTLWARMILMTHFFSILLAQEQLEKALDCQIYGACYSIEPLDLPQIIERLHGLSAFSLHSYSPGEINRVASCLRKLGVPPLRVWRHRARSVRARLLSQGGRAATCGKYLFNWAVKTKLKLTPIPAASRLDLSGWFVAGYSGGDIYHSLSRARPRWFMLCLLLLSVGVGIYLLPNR
Method: (§1) Compounds were evaluated using an in vitro polymerase assay containing purified recombinant HCV RNA-dependent RNA polymerase (NS5B protein). HCV NS5B was expressed in insect cells using a recombinant baculovirus as vector. The experimental procedures used for the cloning, expression and purification of the HCV NS5B protein are described bellow. Follows, are details of the RNA-dependent RNA polymerase assays used to test the compounds.
(§2) The cDNA encoding the entire NS5B protein of HCV-Bk strain, genotype 1b, was amplified by PCR using a plasmid containing a cDNA version of the full-length HCV genome as template. The oligonucleotides used to amplify this HCV region were designed to introduce a NheI site followed by an ATG at the 5′ end of the NS5B coding region as well as a BamHI site at the 3′end immediately downstream of the translation stop codon. The amplified sequence, of 1.8 kb, was digested with NheI and BamHI and ligated to a predigested pBlueBacII plasmid (Invitrogen). The resulting recombinant plasmid was designated pBac/NS5B. Sf9 cells were co-transfected with 3 μg of pBac/NS5B, together with 1 μg of linearized baculovirus DNA (Invitrogen), as described in the manufacturer's protocol. Following two rounds of plaque purification, an NS5B-recombinant baculovirus, BacNS5B, was isolated. The presence of the recombinant NS5B protein was determined by western blot analysis (Harlow and Lane, 1988) of BacNS5B-infected Sf9 cells, using a HCV NS5B specific rabbit polyclonal antiserum (anti-NS5B). Infections of Sf9 cells with this plaque purified virus were performed in one-liter spinner flasks at a cell density of 1.2×10^6 cells/ml and a multiplicity of infection of 5.
(§3) Sf9 cells were infected as described above. Sixty hours post-infection, cells were harvested then washed twice with phosphate buffer saline (PBS). Total proteins were solubilized as described in Lohmann et al. (1997) with some modifications. In brief, proteins were extracted in three steps, S1, S2, S3, using lysis buffers (LB) I, LB II and LB III (Lohmann et al, 1997). The composition of LBII was modified to contain 0.1% triton X-100 and 150 mM NaCl to reduce the amount of solubilized NS5B protein at this step. In addition, sonication of cell extracts was avoided throughout the protocol to preserve the integrity of the protein structure.
Soluble NS5B protein in the S3 fraction was diluted to lower the NaCl concentration to 300 mM, then it incubated batchwise with DEAE sepharose beads (Amersham-Pharmacia) for 2 hrs at 4° C., as described by Behrens et al. (1996). Unbound material was cleared by centrifugation for 15 min at 4° C., at 25000 rpm using a SW41 rotor (Beckman). […] Eluted fractions were analyzed by SDS-PAGE and western blotting. […]

[2] = biological target: T1, HCV RNA-dependent RNA polymerase (NS5B protein); test: In vitro HCV RNA-dependent RNA polymerase assay, triphosphate form of cytosine analogues (polyrI/oligodC or heteropolymeric RNA template, [32P]-CTP incorporation); type: biochemical, HCV-Bk strain; settings: purified recombinant NS5B; for inhibition at 50 µM: @50 μM compound; for inhibition at 100 µM: @100 μM compound
Method: as §1, §2, §3
Soluble NS5B protein in the S3 fraction was diluted to lower the NaCl concentration to 300 mM, then it incubated batchwise with DEAE sepharose beads (Amersham-Pharmacia) for 2 hrs at 4° C., as described by Behrens et al. (1996). Unbound material was cleared by centrifugation for 15 min at 4° C., at 25000 rpm using a SW41 rotor (Beckman). The supernatant was further diluted to lower the NaCl concentration to 200 mM and subsequently loaded, with a flow rate of 1 ml/min, on a 5 ml HiTrap® heparin column (Amersham-Pharmacia) connected to an FPLC® system (Amersham-Pharmacia). Bound proteins were eluted in 1 ml fractions, using a continuous NaCl gradient of 0.2 to 1 M, over a 25 ml volume. NS5B-containing fractions were identified by sodium dodecyl sulfate polyacrylamide gel electrophoresis (SDS-PAGE), followed by western blotting using the anti-NS5B antiserum at a dilution of 1:2000. Positive fractions were pooled and the elution buffer was exchanged against a 50 mM NaPO4 pH 7.0, 20% glycerol, 0.5% triton X-100 and 10 mM DTT, using a PD-10 column (Amersham-Pharmacia). The sample was then loaded onto a 1 ml HiTrap® SP column (Amersham-Pharmacia), with a flow rate of 0.1 ml/min. Bound proteins were eluted using a continuous 0 to 1 M NaCl gradient over a 15 ml volume. Eluted fractions were analyzed by SDS-PAGE and western blotting. Alternatively, proteins were visualized, following SDS-PAGE, by silver staining using the Silver Stain Plus kit (BioRad) as described by the manufacturer.
RdRp assays were conducted using either homopolymeric template/primers or in vitro transcribed RNA templates. […]

Nc1nc2c(ncn2[C@H]2CO[C@@H](COP(=O)(O)OP(=O)(O)OP(=O)(O)O)O2)c(=O)[nH]1 (single isomer, unassigned) [13(-) triphosphate, (−)-triphosphate-cis-2-hydroxymethyl-4-(guanin-9′-yl)-1,3-dioxolane]
inhibition at 50 µM [1]: 82%
IC50 [1]: 10 µM

Nc1ccn([C@H]2CO[C@@H](COP(=O)(O)OP(=O)(O)OP(=O)(O)O)O2)c(=O)n1 (single isomer, unassigned) [COMPOUND#22(+), (+)-triphosphate-cis-2-hydroxymethyl-4-(cytosin-1′-yl)-1,3-dioxolane]
inhibition at 50 µM [2]: 85%
IC50 [2]: 7.7 µM

Nc1nc(=O)n([C@@H]2CO[C@H](COP(=O)(O)OP(=O)(O)OP(=O)(O)O)O2)cc1F (single isomer, unassigned) [COMPOUND#23(−), (−)-triphosphate-cis-2-hydroxymethyl-4-(5′-fluorocytosin-1′-yl)-1,3-dioxolane]
inhibition at 100 µM [2]: 81%
IC50 [2]: 16 µM

Nc1nc(NC2CC2)c2ncn([C@H]3CO[C@@H](COP(=O)(O)OP(=O)(O)OP(=O)(O)O)O3)c2n1 [9(-)-triphosphate, (−)-triphosphate-cis-2-hydroxymethyl-4-(2′-amino-6′-cyclopropylamino-purine-9′-yl)-1,3-dioxolane]
inhibition at 100 µM ([1]; @100 μM compound): 44%

Nc1ncnc2c1ncn2[C@H]1CO[C@@H](COP(=O)(O)OP(=O)(O)OP(=O)(O)O)O1 [14(-)-triphosphate, (−)-triphosphate-cis-2-hydroxymethyl-4-(adenin-9′-yl)-1,3-dioxolane]
inhibition at 50 µM [1]: 6%

Nc1ccn([C@@H]2CO[C@H](COP(=O)(O)OP(=O)(O)OP(=O)(O)O)O2)c(=O)n1 [COMPOUND#22(−), (−)-triphosphate-cis-2-hydroxymethyl-4-(cytosin-1′-yl)-1,3-dioxolane]
inhibition at 100 µM [2]: 15%

Nc1nc(=O)n([C@H]2CO[C@@H](COP(=O)(O)OP(=O)(O)OP(=O)(O)O)O2)cc1F [COMPOUND#23(+), (+)-triphosphate-cis-2-hydroxymethyl-4-(5′-fluorocytosin-1′-yl)-1,3-dioxolane]
inhibition at 100 µM [2]: 57%

Nc1ncn([C@H]2CO[C@@H](COP(=O)(O)OP(=O)(O)OP(=O)(O)O)O2)c(=O)n1 [COMPOUND#24(+), (+)-triphosphate-cis-2-hydroxymethyl-4-(5′-azacytosin-1′-yl)-1,3-dioxolane]
inhibition at 50 µM [2]: 12%

Nc1ncn([C@@H]2CO[C@H](COP(=O)(O)OP(=O)(O)OP(=O)(O)O)O2)c(=O)n1 [COMPOUND#24(−), (−)-triphosphate-cis-2-hydroxymethyl-4-(5′-azacytosin-1′-yl)-1,3-dioxolane]
inhibition at 100 µM [2]: 8%

Cc1cn([C@H]2CO[C@@H](COP(=O)(O)OP(=O)(O)OP(=O)(O)O)O2)c(=O)nc1N [COMPOUND#25(+), (+)-triphosphate-cis-2-hydroxymethyl-4-(5′-methylcytosin-1′-yl)-1,3-dioxolane]
inhibition at 50 µM [2]: 9%

Cc1cn([C@H]2CO[C@@H](COP(=O)(O)OP(=O)(O)OP(=O)(O)O)O2)c(=O)[nH]c1=O [COMPOUND#26(+), (+)-triphosphate-cis-2-hydroxymethyl-4-(N-1′-thiminyl)-1,3-dioxolane]
inhibition at 100 µM [2]: 47%
